Measured values as given in US12090157B2, “Non-invasive pet imaging of CDK4/6 activation in cancer” (New York University, priority 2020, dated 2024).
Where “and” joins values, the source holds several entries; their conditions need not be identical. Equal values may be shown once. Read-outs that look alike come from different tables or passages of the source.

Assays:
[1] = test system: MCF-7 xenografts; assay: MicroPET/CT imaging and ex-vivo biodistribution in MCF-7 bearing mice; set-up: species or system mouse; conditions: for kidney concentration / liver concentration / small intestines concentration: 2 h post injection
Protocol: Female athymic nude CrTac:NCr-Foxnlnu mice (n=35) were purchased from Taconic Laboratories (Hudson, NY). 20 mice received subcutaneous injections with 2×10^6 human MCF-7 cancer cells in Matrigel® (BD Biosciences, San Jose, CA) into each right shoulder and were allowed to grow for approximately two months until the tumors reached ˜10 mm in diameter. All mice were supplemented with 60 days 0.72 mg slow release estradiol pellets purchased from Innovative Research of America (IRA, Sarasota, FL) implanted in the left flank. Mice were anesthetized (isoflurane 1.5%, 2 L/min medical air) during tumor implantation and microPET imaging.
Twelve subcutaneous MCF-7 implanted athymic nude mice were divided in two groups (blocked and unblocked) and administered with ^18F-CDKi (˜7.4 mBq) via tail vein injection. Approximately 5 min prior to PET acquisition, mice were anesthetized by inhalation of a mixture of isoflurane (Baxter Healthcare, Deerfield, IL, USA; 2% isoflurane, 2 L/min medical air) and positioned on the scanner bed. Anesthesia was maintained using a 1% isoflurane/O2 mixture. PET data for each mouse was recorded and acquired at 30 min p.i and at 120 min p.i. Blocking studies were performed after a pre-injection of 50-fold excess palbociclib (8.4 nmol, 3.8 μg, 30 min before). The duration of the microPET/CT imaging sessions was 20 min each.
Biodistribution of ^18F-CDKi was performed in subcutaneous MCF-7 bearing athymic nude mice (n=8). Mice were divided (n=4/group) in blocked and unblocked (50-fold excess palbociclib, 30 minutes before) and administered with ^18F-CDKi via tail vein injection (1.85 mBq). At 120 minutes post injection of the radioligand, the mice were sacrificed and organs of interest were collected. Organs were weighed, and activity was measured with a WIZARD^2 automatic γ-counter (PerkinElmer, Boston, MA). The radiopharmaceutical uptake was expressed as a percentage of injected dose per gram (% ID/g) using the following formula: [(activity in the target organ/grams of tissue)/injected dose]×100%.

[2] = Blood half-life; assay type: in vivo, mouse; conditions: mice, single bolus intravenous injection
Protocol: The blood half-life of ^18F-CDKi was calculated by measuring the activity of blood samples collected at different time points p.i. (5, 15, 30, 45, 60, 90 and 120 minutes). Female nude mice (n=3) were injected via lateral tail vein with ^18F-CDKi (and blood samples obtained by retro-orbital bleed using tared capillary tubes. Samples were weighed, and activity was measured by γ-counter. The blood half-life was calculated using Graph Prism 7 (GraphPad Software, La Jolla, CA) using a two-phase decay least squares fitting method and expressed as % ID/g.

[3] = test system: CDK4/6; assay: IC50 binding affinity, competitive ATP quantitative assay (CellTiter-Glo, MCF-7 cells); assay type: cell-based, human; conditions: for binding affinity to CDK4/6: FIG. 2A legend
Protocol: (§1) IC50 values were determined using a competitive ATP quantitative assay. […]. MCF-7 cells were cultured at 37° C. for 4 h. Then, ^19F-CDKi or vehicle was added at different concentration and incubated at 37° C. for 96 h. Cell viability was then assessed using CellTiter-Glo® Luminescent Assay (Promega, Madison, WI), used accordingly to manufacturer's guidelines. Cell viability inhibition (%) was calculated according to the formula [1−(mean luminosity of treated sample/mean luminosity of vehicle control)]×100. IC50 for growth or viability inhibition was calculated using Graph Prism 8 (GraphPad Software Inc, La Jolla, CA). We used ^18F-CDKi and palbobiclib for competitive displacement studies. MCF-7 cells were seeded in a 12 wells plate (1×10^5 cells 24 h prior the experiment). The next day, a fixed concentration of ^18F-CDKi (50 nM) was co-incubated with linearly doubling concentrations of palbociclib (from 0 to 500 nM) at 37° C. for 2 h. Then, the cells were washed twice with PBS, lysed with 1N NaOH, and the activity (CPM) measured in a γ-counter for bound ^18F radioligand. The percentage of bound radioligand was finally plotted against palbociclib concentration. Competitive displacement curves were fitted using Graph Prism 8 (GraphPad Software Inc, La Jolla, CA).

[4] = In vitro stability; assay type: in vitro ADME; conditions: after 4 h of incubation
[5] = Octanol/water partition coefficient; assay type: physicochemical; conditions: 1-octanol / phosphate buffered saline pH 7.4
Protocol: The Chemical Hydrophobicity Indices (CHI) were measured using a previously developed procedure (Valkó, Journal Chromatogr A. 2004; 1037:299-310, Valkó et al., Anal Chem. 1997; 69:2022-2029. Briefly, reverse phase HPLC was used to measure the retention times of a set of standards with known CHI. A standard curve was then created to calculate the CHI of […] based on the HPLC retention time. The lipophilicity of the ^18F-CDKi was acquired by adding 0.09 mBq to a mixture of 0.5 mL of 1-octanol and 0.5 mL of 25 mM phosphate buffered saline (pH 7.4) and mixed for 5 minutes. Then, the mixture was centrifuged at 15.000 rpm for 5 minutes. 100 μL samples were obtained from organic and aqueous layers, and the radioactivity of the samples were measured in a WIZARD^2 automatic γ-counter. The experiment was performed in triplicate, and the resulting log Pow was calculated as the mean±SD.

[6] = test system: MCF-7 cells; assay: In vitro cell-associated uptake of ^18F-CDKi; assay type: cell-based, human
Protocol: MCF-7 cells were seeded in a 6 well plates (5×10^6 cells 24 hours prior the experiment). The next day, ^18F-CDKi was added alone or together with a 50-fold excess Palbociclib and incubated at 37° C. for 1 h. After 1 h, cells were firstly washed three times with PBS, then lysed with 1N NaOH, and finally media and cells counted in a γ-counter. The percentage of bound/unbound radioligand at each time point was measured in triplicate and plotted as a function of time.

[7] = test system: MCF-7 cells; assay: Competitive displacement of ^18F-CDKi by palbociclib in MCF-7 cells; assay type: cell-based, human; conditions: 50 nM ^18F-CDKi, palbociclib 0 to 500 nM, 2 h, read-out: inhibition effect, competitive displacement of palbociclib
Protocol: as §1

[8] = first of two values joined by 'or'
[9] = second of two values joined by 'or'

CC(=O)c1c(C)c2cnc(Nc3ccc(N4CCN(C(=O)c5ccc([18F])cc5)CC4)cn3)nc2n(C2CCCC2)c1=O [^18F-CDKi]
kidney concentration [1, 8]: 7.99±0.7 % ID/g
liver concentration [1, 8]: 6±0.5 % ID/g
small intestines concentration [1, 8]: 9.6±2.7 % ID/g
kidney concentration [1, 9]: 9.6±0.98 % ID/g
liver concentration [1, 9]: 6.77±1.15 % ID/g
small intestines concentration [1, 9]: 10±1.19 % ID/g
tumor-to-blood ratio ([1]; MCF-7 bearing mice, 2 h p.i.): > 5
tumor-to-bone ratio ([1]; MCF-7 bearing mice, 2 h p.i.): > 10
tumor-to-muscle ratio ([1]; MCF-7 bearing mice, 2 h p.i.): > 15
tumor uptake after injection of palbociclib prior to the radiotracer ([1]; MCF-7 bearing mice, in words): negligible
tumor uptake, blocked ([1]; MCF-7 xenografts, 50-fold excess of cold palbociclib pre-injected): ~0.3 % ID/g
tumor uptake ([1]; MCF-7 xenografts, ^18F-CDKi alone, 2 h p.i.): ~4 % ID/g
clearance route ([1]; PET imaging and biodistribution, mice): hepatobiliary route
in vivo blood half-life t1/2(weighted) [2]: 7.03 min and 7 min
IC50 ([3]; FIG. 2A, read-out: targeting affinity to CDK4/6): ~0.013 µM
IC50 against both CDK4 and CDK6 kinases ([3]; in words): single digit nanomolar
binding affinity to CDK4/6 ([3]; in words): nanomolar
IC50 ([3]; in words, similar to the parent compound palbociclib): nanomolar range
in vitro stability, parent compound intact [4]: more than 98%
octanol/water phase partition coefficient (log DO/W) [5]: 1.91±0.24
logD ([5]; read-out: octanol/water phase partition coefficient (log DO/W)): 1.91 ± 0.24
cell uptake blocked by excess of cold, unlabeled palbociclib [6]: > 98%
maximum intracellular concentration ([6]; 10 minutes post incubation): ~65%
tracer uptake when co-incubated with a molar excess of Palbociclib ([6]; blocked): < 5%

CC(=O)c1c(C)c2cnc(Nc3ccc(N4CCN(C(=O)c5ccc(F)cc5)CC4)cn3)nc2n(C2CCCC2)c1=O [^19F-CDKi]
IC50 [7]: ~0.018 µM
binding affinity to CDK4/6 ([3]; in words): nanomolar
